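A five-concentration, 48-hour dose response in 96-well plates underlies each endpoint, interpolated linearly between surrounding concentrations. The concentration for 50% growth inhibition is given as GI50.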 Calls of active or inactive are those of the source. Cut-off read from the data, not from the text of the source: active = GI50 up to about 1.1 µM and inactive = higher.
Key:
Test in all cases: inhibition of tumour cell growth, NCI panel, 48 h
Hs-578T = system: Hs-578T
M14 = system: M14
HT-29 = system: HT-29
NCI-H23 = system: NCI-H23
UACC-257 = system: UACC-257
UO-31 = system: UO-31
K562 = system: K562
COLO 205 = system: COLO 205
ACHN = system: ACHN
OVCAR-4 = system: OVCAR-4
NCI-H226 = system: NCI-H226
OVCAR-3 = system: OVCAR-3
OVCAR-5 = system: OVCAR-5
A498 = system: A498
SNB-19 = system: SNB-19
A549 = system: A549
SNB-75 = system: SNB-75
SK-MEL-5 = system: SK-MEL-5
UACC-62 = system: UACC-62
NCI/ADR-RES = system: NCI/ADR-RES
IGROV-1 = system: IGROV-1
MCF7 = system: MCF7
RXF 393 = system: RXF 393
PC-3 = system: PC-3
HCT-116 = system: HCT-116
SN12C = system: SN12C
EKVX = system: EKVX
HL-60 = system: HL-60
TK-10 = system: TK-10
LOX IMVI = system: LOX IMVI
NCI-H522 = system: NCI-H522
SF-268 = system: SF-268
HOP-62 = system: HOP-62
T47D = system: T47D
SF-295 = system: SF-295
MDA-MB-231 = system: MDA-MB-231
OVCAR-8 = system: OVCAR-8
SK-MEL-2 = system: SK-MEL-2
SK-OV-3 = system: SK-OV-3
SF-539 = system: SF-539
SK-MEL-28 = system: SK-MEL-28
SW-620 = system: SW-620
DU-145 = system: DU-145
SR = system: SR
CAKI-1 = system: CAKI-1
RPMI-8226 = system: RPMI-8226
MDA-N = system: MDA-N
HCT-15 = system: HCT-15
CCRF-CEM = system: CCRF-CEM
Malme-3M = system: Malme-3M
HOP-92 = system: HOP-92
786-0 = system: 786-0
KM12 = system: KM12
MOLT-4 = system: MOLT-4
HCC 2998 = system: HCC 2998
MDA-MB-435 = system: MDA-MB-435
U-251 = system: U-251
BT-549 = system: BT-549

## O=S(=O)(O)c1ccc(Nc2ccnc3cc(Cl)ccc23)cc1
Hs-578T
  GI50: > 100 µM (inactive)
M14
  GI50: > 100 µM (inactive)
HT-29
  GI50: > 100 µM (inactive)
NCI-H23
  GI50: > 100 µM (inactive)
UACC-257
  GI50: > 100 µM (inactive)
UO-31
  GI50: > 100 µM (inactive)
K562
  GI50: > 100 µM (inactive)
COLO 205
  GI50: > 100 µM (inactive)
ACHN
  GI50: > 100 µM (inactive)
OVCAR-4
  GI50: > 100 µM (inactive)
NCI-H226
  GI50: > 100 µM (inactive)
OVCAR-3
  GI50: > 100 µM (inactive)
OVCAR-5
  GI50: > 100 µM (inactive)
A498
  GI50: > 100 µM (inactive)
SNB-19
  GI50: > 100 µM (inactive)
A549
  GI50: > 100 µM (inactive)
SNB-75
  GI50: > 100 µM (inactive)
SK-MEL-5
  GI50: > 100 µM (inactive)
UACC-62
  GI50: > 100 µM (inactive)
NCI/ADR-RES
  GI50: > 100 µM (inactive)
IGROV-1
  GI50: > 100 µM (inactive)
MCF7
  GI50: > 100 µM (inactive)
RXF 393
  GI50: > 100 µM (inactive)
PC-3
  GI50: > 100 µM (inactive)
HCT-116
  GI50: > 100 µM (inactive)
SN12C
  GI50: > 100 µM (inactive)
EKVX
  GI50: > 100 µM (inactive)
HL-60
  GI50: > 100 µM (inactive)
TK-10
  GI50: > 100 µM (inactive)
LOX IMVI
  GI50: > 100 µM (inactive)
NCI-H522
  GI50: > 100 µM (inactive)
SF-268
  GI50: > 100 µM (inactive)
HOP-62
  GI50: > 100 µM (inactive)
T47D
  GI50: > 100 µM (inactive)
SF-295
  GI50: > 100 µM (inactive)
MDA-MB-231
  GI50: > 100 µM (inactive)
OVCAR-8
  GI50: > 100 µM (inactive)
SK-MEL-2
  GI50: > 100 µM (inactive)
SK-OV-3
  GI50: > 100 µM (inactive)
SF-539
  GI50: > 100 µM (inactive)
SK-MEL-28
  GI50: > 100 µM (inactive)
SW-620
  GI50: > 100 µM (inactive)
DU-145
  GI50: > 100 µM (inactive)
SR
  GI50: > 100 µM (inactive)
CAKI-1
  GI50: > 100 µM (inactive)
RPMI-8226
  GI50: > 100 µM (inactive)
MDA-N
  GI50: > 100 µM (inactive)
HCT-15
  GI50: > 100 µM
CCRF-CEM
  GI50: > 100 µM (inactive)
Malme-3M
  GI50: > 100 µM (inactive)
HOP-92
  GI50: > 100 µM (inactive)
786-0
  GI50: > 100 µM (inactive)
KM12
  GI50: > 100 µM (inactive)
MOLT-4
  GI50: > 100 µM (inactive)
HCC 2998
  GI50: > 100 µM (inactive)
MDA-MB-435
  GI50: > 100 µM (inactive)
U-251
  GI50: > 100 µM (inactive)
BT-549
  GI50: > 100 µM (inactive)

— ChEMBL document CHEMBL1201862, “PubChem BioAssay data set” (2004)
